Experimental data from patent publication US20120156230A1, “TREATMENT OF SPINAL CORD INJURY AND TRAUMATIC BRAIN INJURY USING PLACENTAL STEM CELLS” (priority 2010, published 2012).

How the values were obtained:
[1] = molecular target: T1, indoleamine 2,3-dioxygenase (IDO) (Homo sapiens, UniProt P14902); assay: BTR T cell proliferation assay with IDO blockade; format: cell-based; details: 256 μM
T1 construct: endogenous in cells; host or cells: PDACs (placental stem cells) co-cultured with T cells in the BTR assay
Excerpt: To investigate the mechanism of action of PDAC-mediated suppression of T cell proliferation, pharmacological inhibitors or neutralizing antibodies were used to block the activity of prostaglandin E2 (PGE2), inducible nitric oxide synthase (iNOS), transforming growth factor beta (TGF-β), interleukin-10 (IL-10) and IDO in an in vitro T cell proliferation assay (BTR).

T cells (Th1 skewing) = assay: Th1 skewing culture; format: cell-based; details: BTR with IL-2, IL-12, anti-IL-4 cocktail
Method: To investigate the molecular mechanism of action of PDAC-mediated suppression of Th1 skewing, IDO siRNA was transiently transfected into PDACs by standard techniques. Th1 skewing was carried out as for the BTR reactions (see above) but supplemented with an additional Th1 skewing cytokine cocktail containing IL-2 (200 IU/mL), IL-12 (2 ng/mL) and anti-IL-4 (0.4 μg/ml).

[2] = test system: chick chorioallantoic membrane (CAM); assay: CAM angiogenesis assay using PDACs; format: in vivo; details: P<0.001, Student's t test
Method: Two separate CAM assays were conducted. In the first CAM assay, intact cell pellets from different preparations of PDAC were evaluated. In the second CAM assay, supernatants of different PDAC preparations were evaluated. Fibroblast growth factor (bFGF) was used as a positive control, and MDA-MB-231 human breast cancer cells as a reference, vehicle and medium controls were used as negative controls. The endpoint of the study was to determine the blood vessel densities of all treatment and control groups.
PDACs, prepared as described above and cryopreserved, were used. PDACs were thawed for dosing and the number of cells dosed on the CAM was determined. […]
CAM Assay Procedure: Fresh fertile eggs were incubated for 3 days in a standard egg incubator at 37° C. for 3 days. […] On Day 8, embryos were removed from the incubator and kept at room temperature while blood vessel density was determined under each “O” ring using an image capturing system at a magnification of 100×.
Blood vessel density was measured by an angiogenesis scoring system that used arithmetic numbers 0 to 5, or exponential numbers 1 to 32, to indicate the number of blood vessels present at the treatment sites on the CAM. […] The percent of inhibition at each dosing site was calculated using the score recorded for that site divided by the mean score obtained from control samples for each individual experiment. […]

[3] = test system: chick chorioallantoic membrane (CAM); assay: CAM angiogenesis assay using PDAC supernatants; format: in vivo; details: supernatant mixed with MATRIGEL 1:1; PDAC supernatants P<0.01, P<0.001, P<0.02; bFGF P<0.001
Excerpt: Supernatant samples from MDA-MB-231 cells and PDACs were used in a second CAM assay as described above. bFGF and MDA-MB-231 supernatants were used as positive controls, medium and vehicle were used as negative controls.
Study Design: The study included 5 groups with 10 embryos in each group. The design of the study is described in Table 4.
CAM Assay Procedure: The assay procedure was the same as described in section 6.3.1, above. The only difference was that supernatant from each stem cell preparation or from MDA-MB-231 cells was used as test material. For dosing, each supernatant was mixed with MATRIGEL™ (1:1 by volume) and […] of the mixture was dosed to each embryo.

T1 sequence (P14902 whole entry): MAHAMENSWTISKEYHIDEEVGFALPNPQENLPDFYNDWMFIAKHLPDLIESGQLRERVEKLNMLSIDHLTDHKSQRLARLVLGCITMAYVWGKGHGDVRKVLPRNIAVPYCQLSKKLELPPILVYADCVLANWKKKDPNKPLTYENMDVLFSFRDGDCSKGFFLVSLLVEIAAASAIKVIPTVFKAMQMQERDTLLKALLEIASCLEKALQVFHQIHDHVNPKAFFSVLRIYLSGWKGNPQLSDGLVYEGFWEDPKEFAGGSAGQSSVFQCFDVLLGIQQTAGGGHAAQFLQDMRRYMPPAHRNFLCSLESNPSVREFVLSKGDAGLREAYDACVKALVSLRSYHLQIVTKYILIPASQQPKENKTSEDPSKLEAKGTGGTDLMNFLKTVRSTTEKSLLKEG

Row | Molecule | rescue of T cell proliferation from PDAC-mediated suppression [1] | rescue of PDAC-mediated suppression of Th1 skewing (T cells (Th1 skewing)) | blood vessel density score versus vehicle control CAMs [2] | blood vessel induction versus vehicle controls [3]
1 | N[C@@H](Cc1c[nH]c2ccccc12)C(=O)O [L-Trp, L-trptophan] | substantially rescued | completely rescued | – | –
2 | Cn1cc(C[C@H](N)C(=O)O)c2ccccc21 [1 MT, 1-methyl tryptophan] | – | completely rescued | – | –
3 | bFGF: basic fibroblast growth factor (positive control) | – | – | statistically significantly higher | potent induction of blood vessel formation
